{"source": "patent US9249159B2", "about": "“Composition for treating hepatitis C virus, regulating phosphorylation of replicase” (Industry-Academic Cooperation Foundation, Yonsei University, priority 2011, dated 2016)", "key": {"Huh7 cells": {"tested_on": "Huh7 cells", "test": "Cell cycle analysis of Huh7 cells by flow cytometer", "type": "cell-based, human", "settings": "48 hours, 17-DMAG 500 nM", "experimental": "The Huh7 cell treated with 17-DMAG or HA1077 for 48 hours was collected and washed with PBS. The cells were fixed with chilled ethanol for 30 min, treated with RNase A (100 μg/ml) for 5 min at room temperature, stained with 50 μg/mL propidium iodide (PI, Sigma-Aldrich) for 30 min at 37° C., and analyzed using a FACS Calibur flow cytometer (Becton Dickinson, San Jose, Calif., USA).\nThen, a cell cycle assay was carried out by using a flow cytometer. Huh7 cells were treated with DMSO (0.25%) or 500 nM of 17-DMAG for 48 hours, and a cell cycle thereof was analyzed by using a flow cytometer to show the percentage of cells in G1, S, and G2/M phases. LY294002 as a PI3K inhibitor was used as a positive control."}, "[1]": {"tested_on": "genotype 1b HCV subgenomic replicon (R-1 cell line)", "test": "HCV replication (HCV RNA by real-time RT-PCR, NS5B protein by Western blot) in R-1 subgenomic replicon cells", "type": "cell-based, hepatitis C virus genotype 1b", "settings": "R-1 cell", "excerpt": "In order to check a PRK2 phosphorylation inhibition effect of the novel inhibitors obtained in Example 1, R-1 cell line harboring HCV subgenomic replicons was used.\nThe R-1 cell line was comprised of cis-acting RNA elements of 5′ and 3′-end untranslated regions (UTR) essential for replication of HCV RNA, a selection marker inserted to select a replicated RNA into a portion from which a structural protein coding site was removed, and a non-structural protein (NS3-NS5B)-coding gene required for replication. In the replicon, the selection marker was expressed by the HCV 5′-UTR and internal ribosome entry site (IRES) as a part of a coding gene of a core protein as a structural protein and capsid protein, and HCV non-structural proteins were expressed by IRES of EMCV. In order to obtain replicon cells, a HCV subgenomic replicon RNA was obtained by means of in vitro transcription by using a T7 RNA polymerase, free ribonucleotide was removed by using a spin column, and introduced into a hepatocellular carcinoma cell line by electroporation. In the presence of G418, a stable cell line, i.e. a cell line showing a resistance to G418 through replication of HCV subgenome, was obtained. Expression of the HCV non-structural proteins in this cell line was analyzed by Western blot to confirm that replication was being carried out, and the R-1 cell line was constructed. It was observed that an HCV RNA copy number was about 10^7 copies/mL by a quantitative real-time PCR analysis using a TaqMan probe. The R-1 cell line was a cell line in which HCV RNA replication was being carried out, and thus it could be used to evaluate an HCV replication inhibition effect of a PRK2 activity inhibitor.\nThen, after the R-1 cell line was treated with each of 5 screened PRK2 inhibitors, HA1077 currently and clinically used as a PRK2 activity inhibitor, and Y27632 having a PRK2 activity inhibition effect at a final concentration of 20 μM for 48 hours, levels of HCV NS5B protein and HCV RNA in cell lysates (50 μg) were analyzed by Western blot and real-time RT-PCR.\n(§1) To do so, after the two cell lines were treated with the compound #17 at higher concentrations (60 and 100 μM) than 20 μM for 48 hours, an HCV RNA genome level was checked by a real-time RT-PCR analysis. A value was a mean±standard deviation (SD) of three independent measurements. HCV RNA titer was quantified by real-time PCR analysis. Three independent experiments were performed in triplicate.\n5 derivatives (#18 to #22: refer to FIG. 2) were produced based on the inhibitor #17 showing the best effect. After the R-1 cell line was treated with each of these inhibitors or HA1077 and Y27632 at a final concentration of 20 μM for 48 hours, an HCV RNA genome level was checked by a real-time RT-PCR analysis and expressed in % with respect to a control treated with DSMO. Three independent experiments were conducted repeatedly three times. Data were expressed by mean±SD of the three experiments.\n(§2) Total RNA was extracted from R-1 or HCV (JFH1)-infected cells using TRIzol LS reagent (Invitrogen, Carlsbad, Calif., USA) and purified according to the manufacturer's instructions. HCV RNA levels were quantified by RT-PCR using a primer pair and TaqMan probe targeting a region within the HCV 5′-UTR as described previously. Cellular glyceraldehyde-3-phosphate dehydrogenase was used as an internal control. Assays were performed using the DyNAmo Probe 2-step qRT-PCR Kit (Finnzymes, Espoo, Finland) and a CHROMO4 continuous fluorescence detector (Bio-Rad, Hercules, Calif., USA), according to the manufacturer's instructions.\nTherefore, anti-HCV activity of 17-DMAG in the R-1 cell was tested at a level lower than 50 nM. To do so, the R-1 cell was treated with a vehicle (0.25% DMSO) or 17-DMAG for 72 hours and the cell lysates (50 μg) and antibodies specific to the proteins were immunoblotted to measure levels of the proteins. An anti-α-tubulin antibody (lower end panel) was used as an internal loading control. […]"}, "PRK2": {"target": "T1, PRK2 (Homo sapiens, UniProt Q16513)", "T1 construct": "endogenous in cells; host or cells: R-1 (Huh7-derived HCV replicon cells) and Huh7", "T1 sequence (Q16513 whole entry)": "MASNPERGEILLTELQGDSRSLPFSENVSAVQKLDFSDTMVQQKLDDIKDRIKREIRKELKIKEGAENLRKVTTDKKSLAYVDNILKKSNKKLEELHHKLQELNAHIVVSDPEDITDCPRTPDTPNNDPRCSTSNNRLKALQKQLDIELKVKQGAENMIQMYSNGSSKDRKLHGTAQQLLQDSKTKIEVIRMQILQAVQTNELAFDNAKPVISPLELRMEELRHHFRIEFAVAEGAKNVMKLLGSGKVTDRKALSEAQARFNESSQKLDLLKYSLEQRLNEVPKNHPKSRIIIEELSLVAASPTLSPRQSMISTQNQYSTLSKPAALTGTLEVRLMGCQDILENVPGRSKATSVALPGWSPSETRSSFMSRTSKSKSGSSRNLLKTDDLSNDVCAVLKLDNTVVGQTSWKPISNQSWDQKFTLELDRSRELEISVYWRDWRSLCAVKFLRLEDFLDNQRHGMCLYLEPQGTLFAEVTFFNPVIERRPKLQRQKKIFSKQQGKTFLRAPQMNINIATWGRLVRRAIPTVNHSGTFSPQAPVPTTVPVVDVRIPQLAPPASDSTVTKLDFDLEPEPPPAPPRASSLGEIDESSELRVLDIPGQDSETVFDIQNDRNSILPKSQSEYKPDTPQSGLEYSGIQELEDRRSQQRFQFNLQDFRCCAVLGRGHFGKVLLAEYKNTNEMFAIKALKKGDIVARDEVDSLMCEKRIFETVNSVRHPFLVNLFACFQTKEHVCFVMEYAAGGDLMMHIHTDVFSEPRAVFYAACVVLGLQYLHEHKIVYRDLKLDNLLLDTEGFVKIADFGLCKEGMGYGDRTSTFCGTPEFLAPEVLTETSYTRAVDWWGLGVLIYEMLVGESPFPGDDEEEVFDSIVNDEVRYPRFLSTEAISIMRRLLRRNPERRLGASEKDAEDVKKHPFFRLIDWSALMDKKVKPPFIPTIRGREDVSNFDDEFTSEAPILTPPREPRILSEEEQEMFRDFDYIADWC", "test": "PRK2 phosphorylation (Thr816) and PRK2 level in R-1 cells by Western blot", "type": "cell-based", "settings": "R-1 cell, 72 hours", "quoted_text": "After the R-1 cell line was treated with the PRK2 inhibitor at a final concentration of 10 or 20 μM for 48 hours, phosphorylation or not of Thr^816 residue essential for activity of PRK2 was analyzed by Western blot using a phospho-PRK2 antibody to measure an expression level of phosphorylated PRK2. Immunoblotting using an anti-α-tubulin antibody was carried out to check whether or not the same amount of protein was loaded.\nTotal cell lysates from cells treated with inhibitors or IFN-α by using antibodies to PDK1, p-PDK1 (S241), PRK2, and p-PRK2 (T816) (products of Cell Signaling Technology, Inc., Beverly, Mass., USA) was used for immunoblotting. In order to detect PKC isoforms α, β, and γ, a polyclonal antibody to a consensus sequence present in three PKC (protein kinase C) isoforms α, β and γ (anti-pan-PKC; Zymed Laboratories, San Francisco, Calif., USA) was used. An anti-α-tubulin antibody (Oncogene Research Products, Cambridge, Mass., USA) was carried out in immunoblotting for checking whether or not the same amount of protein was loaded.\nThe levels of the proteins were measured by densitometric analysis of immunoblot, and the phosphorylated amounts and relative intensities calculated with respect to PDK1 and PDK2 were converted with respect to α-tubulin signals and then quantitated. As a result of three independent experiments showing similar results, a representative blot picture was illustrated.\nThen, in order to check whether or not IFN-α affected a PDK1-PRK2 signaling pathway, the R-1 cell was treated with 100 IU/ml of IFN-α hourly for 6 hours. SDS-PAGE was carried out to the cell lysates, and immunoblotting was carried out. The immunoblotting with anti-α-tubulin antibody was used as an internal control for loading. A representative result from one of the three independent experiments showing a similar result was illustrated."}, "[2]": {"tested_on": "genotype 2a HCV (JFH1)-infected Huh7 cells", "test": "HCV RNA level in Huh7 cells infected with HCV (JFH1)", "type": "cell-based, hepatitis C virus genotype 2a", "settings": "JFH1-infected Huh7 cell, 500 nM, 72 hours", "experimental": "as §1\nFull-length, infectious HCV RNA of the genotype 2a HCV clone JFH1 was prepared by in vitro transcription using the MEGAscript T7 kit (Ambion, Austin, Tex., USA) and electroporated into Huh7 cells as described previously. Briefly, at 72 h post electroporation, culture medium was collected, cleared by low-speed centrifugation, and passed through a 0.45-μm filter (Millipore, Billerica, Mass., USA) before being used for infection of Huh7 cells. Cells were infected with HCV at a multiplicity of infection of 0.3 by adsorption for 3 h with periodic rocking, then washed three times with phosphate-buffered saline (PBS) and maintained in complete DMEM. […]\nas §2, with “Cellular glyceraldehyde-3-phosphate dehydrogenase was used as an internal control.” left out\nIn order to analyze whether or not 17-DMAG can inhibit replication in a cell infected with HCV, an experiment was carried out with the genotype 2a HCV infectious clone JFH1, which produces infectious virions in Huh7 or Huh7-derived cell lines. […] After 72 hours, total cellular RNA was extracted and HCV remaining in the infected cell was analyzed by quantitative RT-PCR."}}, "data": [{"smiles": "CO[C@H]1/C=C\\C=C(/C)C(=O)NC2=CC(=O)C(NCCN(C)C)=C(C[C@@H](C)C[C@H](OC)[C@H](O)[C@@H](C)/C=C(\\C)[C@@H]1OC(N)=O)C2=O", "note": "[17-DMAG, 17-(dimethylaminoethylamino)-17-demethoxygeldanamycin]", "values": [{"measurement": "cell cycle (G1, S, G2/M phases)", "setting": "Huh7 cells", "result": "not significantly changed"}, {"measurement": "decrease in viral RNA", "setting": "[1]; 50 nM 17-DMAG combined with 100 IU/mL IFN-α, 72 hours", "result": "hundredfold"}, {"measurement": "inhibition of HCV RNA replication", "setting": "[1]; 50 nM, 72 hours", "result": "about 50%"}, {"measurement": "inhibition of virus replication", "setting": "[1]; 17-DMAG 50 nM combined with HA1077 20 μM", "result": "approximately 80%"}, {"measurement": "stability of PRK2", "setting": "PRK2; 50 nM", "result": "not affected"}, {"measurement": "level of p-PRK2", "setting": "PRK2; 10 or 50 nM", "result": "decreased"}, {"measurement": "decrease of level of viral RNA", "setting": "[2]", "result": "about 87%"}]}]}
